Laboratory results reported in publication PMC4300089, “Structure-Guided Design of Selective Epac1 and Epac2 Agonists” (PLoS Biology, 2015).

Biological target: T1, Epac2^Δ280 (Mus musculus, UniProt Q9EQZ6)
T1 construct: made in house
T1 sequence (Q9EQZ6 281-993 isoform Q9EQZ6-3): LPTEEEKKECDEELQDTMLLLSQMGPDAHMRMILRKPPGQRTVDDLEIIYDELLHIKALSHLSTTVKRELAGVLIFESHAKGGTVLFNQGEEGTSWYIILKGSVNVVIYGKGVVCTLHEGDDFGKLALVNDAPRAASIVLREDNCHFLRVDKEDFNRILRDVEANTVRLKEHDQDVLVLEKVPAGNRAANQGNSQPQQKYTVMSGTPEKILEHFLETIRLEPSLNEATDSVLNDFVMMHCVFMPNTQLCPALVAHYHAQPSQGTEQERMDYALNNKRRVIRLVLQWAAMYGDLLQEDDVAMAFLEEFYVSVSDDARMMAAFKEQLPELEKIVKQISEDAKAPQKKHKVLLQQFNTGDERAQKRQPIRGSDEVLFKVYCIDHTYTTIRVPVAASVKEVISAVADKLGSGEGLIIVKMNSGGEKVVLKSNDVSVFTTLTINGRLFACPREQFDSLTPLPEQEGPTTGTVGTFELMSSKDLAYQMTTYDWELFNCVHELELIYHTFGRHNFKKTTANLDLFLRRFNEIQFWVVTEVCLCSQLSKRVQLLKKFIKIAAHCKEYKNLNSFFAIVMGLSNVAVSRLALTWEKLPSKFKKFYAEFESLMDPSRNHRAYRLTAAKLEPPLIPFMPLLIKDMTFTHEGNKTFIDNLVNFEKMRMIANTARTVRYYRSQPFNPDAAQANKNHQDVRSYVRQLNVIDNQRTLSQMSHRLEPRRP
Assay: Epac activation assay (Rap1B•mGDP fluorescence nucleotide exchange), Epac2^Δ280
Assay type: biochemical
Conditions: for AC50 / Rel. kmax: Epac2^Δ280; for Rel. kmax: maximal activity relative to cAMP
Procedure: Murine Epac2 was used as all previous structural studies were performed with it.
The activity of Epac was determined by a fluorescence assay. […] The fluorescence intensity of Rap1B•mGDP is approximately twice that of free mGDP, and thus, nucleotide exchange can be observed as a decay in fluorescence upon the addition of excess unlabeled GDP.

Compound | AC50 [nM] | Rel. kmax | activation (Epac2)
CO[C@@H]1[C@@H]2O[P@@](O)(=S)OC[C@H]2O[C@H]1n1c(Sc2ccc(O)cc2)nc2c(N)ncnc21 [S-202, Sp-8-pOHPT-2′-O-Me-cAMPS] | 1600 | 1.4 | 
Nc1ncnc2c1nc(SCc1cccc(C(F)(F)F)c1)n2[C@@H]1O[C@@H]2CO[P@](O)(=S)O[C@H]2[C@H]1O [S-300, Sp-8-mTFMeBnT-cAMPS] | 140 | 5.0 | 
Nc1ncnc2c1nc(Cl)n2[C@@H]1O[C@@H]2COP(=O)(O)O[C@H]2[C@H]1Cl [D-006, 8,2′-DCl-cAMP] | 14000 | 0.7 | 
Nc1ncnc2c1nc(N)n2[C@@H]1O[C@@H]2COP(=O)(O)O[C@H]2[C@H]1O [L-003, 8-NH2-cAMP] | 200 | 0.7 | 
CCN(C)c1nc2c(N)ncnc2n1[C@@H]1O[C@@H]2CO[P@](O)(=S)O[C@H]2[C@H]1O [S-080, Sp-8-EMeA-cAMPS] | 1800 | 7.6 | 
Nc1ncnc2c1nc(OCc1ccccc1)n2[C@@H]1O[C@@H]2CO[P@](O)(=S)O[C@H]2[C@H]1O [S-150, Sp-8-BnO-cAMPS] | 1300 | 4.8 | 
CSc1nc2c(N)ncnc2n1[C@@H]1O[C@@H]2COP(=O)(O)O[C@H]2[C@H]1O [L-024, 8-MeT-cAMP] | 140 | 2.0 | 
CCN(CC)c1nc2c(N)ncnc2n1[C@@H]1O[C@@H]2CO[P@](O)(=S)O[C@H]2[C@H]1O [S-090, Sp-8-DEA-cAMPS] | 10000 | 4.1 | 
CO[C@@H]1[C@@H]2OP(=O)(O)OC[C@H]2O[C@H]1n1c(O)nc2c(N)ncnc21 [D-010, 8-OH-2′-O-Me-cAMP] | 6800 | 0.5 | 
COc1nc2c(N)ncnc2n1[C@@H]1O[C@@H]2CO[P@](O)(=S)O[C@H]2[C@H]1O [S-140, Sp-8-MeO-cAMPS] | 700 | 7.3 | 
Nc1ncnc2c1nc(OCc1ccccc1)n2[C@@H]1O[C@@H]2COP(=O)(O)O[C@H]2[C@H]1O [L-023, 8-BnO-cAMP] | 1300 | 1.6 | 
CCN(CC)c1nc2c(N)ncnc2n1[C@@H]1O[C@@H]2COP(=O)(O)O[C@H]2[C@H]1O [L-016, 8-DEA-cAMP] | 9000 | 5.1 | 
Nc1ncnc2c1nc(Cl)n2[C@@H]1O[C@@H]2COP(O)(=S)O[C@@H]2C1O (stereo partly drawn) [S-020, Sp-8-Cl-cAMPS] | 400 | 3.8 | 
Nc1ncnc2c1nc(NCCCCO)n2[C@@H]1O[C@@H]2COP(=O)(O)O[C@H]2[C@H]1O [L-008, 8-OHBuA-cAMP] | 2600 | 1.6 | 
8-PIA-cAMP [L-019] | 19000 | 3.8 | 
COc1ccc(CSc2nc3c(N)ncnc3n2[C@@H]2O[C@@H]3CO[P@](O)(=S)O[C@H]3[C@H]2O)cc1 [S-250, Sp-8-pMeOBnT-cAMPS] | 110 | 5.4 | 
CO[C@@H]1[C@@H]2OP(=O)(O)OC[C@H]2O[C@H]1n1c([Se]Cc2ccccc2)nc2c(N)ncnc21 [D-013, 8-BnSe-2′-O-Me-cAMP] | 3600 | 2.3 | 
C[Se]c1nc2c(N)ncnc2n1[C@@H]1O[C@@H]2COP(=O)(O)O[C@H]2[C@H]1O [L-027, 8-MeSe-cAMP] | 180 | 1.5 | 
O=P1(O)OCC2OC(n3cnc4c(NCc5ccccc5)ncnc43)C(O)C2O1 (stereo not drawn) [N-001, N^6-Bn-cAMP] | 1100 | 0.3 | 
CO[C@@H]1[C@@H]2O[P@@](O)(=S)OC[C@H]2O[C@H]1n1c(SC)nc2c(N)ncnc21 [S-180, Sp-8-MeT-2′-O-Me-cAMPS] | 3700 | 3.2 | 
Nc1ncnc2c1nc(Br)n2[C@H]1C[C@@H]2O[P@@](O)(=S)OC[C@H]2O1 [S-011, Sp-8-Br-2′dcAMPS] | 9000 | 0.8 | 
CN(C)c1nc2c(N)ncnc2n1[C@@H]1O[C@@H]2CO[P@](O)(=S)O[C@H]2[C@H]1O [S-070, Sp-8-DMeA-cAMPS] | 2100 | 9.3 | 
Nc1ncnc2c1nc(SCc1ccc(F)cc1)n2[C@@H]1O[C@@H]2CO[P@](O)(=S)O[C@H]2[C@H]1O [S-280, Sp-8-pFBnT-cAMPS] | 110 | 4.9 | 
Nc1ncnc2c1nc(Sc1ccc(O)cc1)n2[C@@H]1O[C@@H]2CO[P@](O)(=S)O[C@H]2[C@H]1F [S-201, Sp-8-pOHPT-2′-F-cAMPS] | 1600 | 1.0 | 
O=C(Nc1ncnc2c1ncn2[C@@H]1O[C@@H]2COP(=O)(O)O[C@H]2[C@H]1O)c1ccccc1 [N-002, N^6-Bnz-cAMP] | 2900 | 0.1 | inability to activate Epac2
